Measurements as given in patent US6723343B2, “Pharmaceutical tramadol salts” (Gruenenthal GmbH, priority 1999, dated 2004).

Details: deionized water, 25° C., stirred for 20 hours, HPLC against tramadol hydrochloride as standard
Description: The solubility of the salts of tramadol and a sugar substitute was determined as follows:
The requisite amount of the salt of tramadol and the appropriate sugar substitute can optionally be determined by preliminary experiments.
After the undissolved salt of tramadol and the appropriate sugar substitute had been allowed to settle out, the clear supernatant was pipetted off and centrifuged for 5 minutes at a speed of at least 3000 rpm. Part of the resulting clear supernatant is transferred to an HPLC sample vial and the concentration of the salt of tramadol and the appropriate sugar substitute is determined against tramadol hydrochloride as standard.

Structure (SMILES): COc1cccc(C2(O)CCCCC2CN(C)C)c1.O=C1NS(=O)(=O)c2ccccc21 (stereo not shown) [tramadol saccharinate]
- solubility in water: 22.5 mg/mL
